Assay results published in patent US8853151B2, “Pro-drug complexes and related methods of use” (The Regents of the University of Michigan, priority 2009, dated 2014).
In brackets after ≈: the same amount, converted by molar mass. Like-named read-outs stand apart in the source and are kept apart here.

Tests used:
[1] = Solubility of SN-38 pro-drug complex in comparison with SN-38; type: physicochemical
Excerpt: The solubility of SN-38 pro-drug complex
[drawing 23] in comparison with SN-38 was investigated.

[2] = test system: breast cancer cell line SKBR3; assay: Effect on cell growth with or without recombinant human DT-Diaphorase (DTD) in the growth medium, SKBR3 cells; type: cell-based
Excerpt: (§1) The redox-coupled release of free SN38 from the SN-38 pro-drug complex
(§2) [drawing 24] using the enzyme DT-Diaphorase (DTD) was investigated. DTD is a cytosolic oxidoreductase which catalyzes the two-electron reduction of quinones using NADH or NADPH as electron donors (see, e.g., Phillips et al, Biochemical Pharmacology 68: 2107-2116 (2004); herein incorporated by reference in its entirety). As the DTD-induced reduction of quinones is known to take place even under normoxic conditions, the enzyme is used as a positive control for testing the release of drugs from quinone-linked drugs. Synthesized SN-38 pro-drug complex was incubated with recombinant human DTD (Sigma) added into the cell growth medium in the presence of different concentration of the SN-38 pro-drug complex. The effect of the drug on cell growth was determined in two different human cell lines, the cervical carcinoma cell line KB, and the breast cancer cell line SKBR3.

[3] = test system: cervical carcinoma cell line KB; assay: Effect on cell growth with or without recombinant human DT-Diaphorase (DTD) in the growth medium, KB cells; type: cell-based
Excerpt: as §1, §2

[4] = absence of DTD, up to 300 nM prodrug

Row | SMILES | solubility ([1]; water) | cytotoxicity [2, 4] | cytotoxicity on redox-mediated activation (FIG. 9) ([2]; redox-mediated activation) | solubility ([1]; in water, read-out: solubility) | solubility compared with SN38 ([1]; ratio pro-drug complex / SN38) | cytotoxicity [3, 4] | cytotoxicity on redox mediated activation (FIG. 8) ([3]; redox mediated activation)
1 | CCc1c2c(nc3ccc(O)cc13)-c1cc3c(c(=O)n1C2)COC(=O)[C@]3(O)CC [SN38, 7-Ethyl-10-hydroxy-camptothecin, reference compound] | ~2 µg/mL (≈ 5.1 µM) |  |  |  |  |  | 
2 | CCc1c2c(nc3ccc(OC(=O)N(C)CCN(C)C(=O)OCc4c5c(n(CC(=O)NCCOCCOCCOCCn6cc(CCC(=O)CCCC(=O)NCCCCC7NC(=O)[C@@H](Cc8ccc(O)cc8)NC(=O)[C@H](CC(=O)O)NC(=O)CNC(=O)[C@H](CCCNC(=N)N)NC7=O)nn6)c4C)C(=O)C=C(OC)C5=O)cc13)-c1cc3c(c(=O)n1C2)COC(=O)[C@]3(O)CC (stereo partly shown) [SN-38 pro-drug complex] |  | essentially non-cytotoxic | leads to SKBR3 cell cytotoxicity | 100 µg/mL | >= 50 times | essentially non-cytotoxic | leads to KB cell cytotoxicity
